In patent US20160100572A1, “Enhancement Of Insecticides Against Codling Moth (Lepidoptera: Tortricidae) With L-Aspartate” (priority 2014, published 2016):
Like-named read-outs stand apart in the source and are kept apart here.

Legend:
codling moth larvae = assay: Insecticide enhancement with L-aspartate: field trials, fruit damage; assay type: in vivo, Cydia pomonella; conditions: for fruit damage reduced by: L-aspartate added to insecticides
Experimental: Field trials were performed in 2010, 2011, and 2012 in a research orchard at the Missouri State Fruit Experiment Station in Mountain Grove, Mo. […] A 1-hectare apple research block was set up for the research. […] To combat these pests and diseases, the block was treated with a standard program of fungicides and insecticides alone or with addition of L-aspartate. An untreated 0.5-hectare refuge for the lepidopteran pests consisting of apple trees that were not treated with fungicides or insecticides was set up on the periphery of the block to provide moderate pressure from the pests, including codling moth.
The same experimental routine was followed each year. Apple trees of Stark Gala variety on M7A rootstock were used in fully randomized design for eight replicates and three treatments (a given insecticide alone, L-aspartate in combination with a given insecticide, and untreated control). Codling moth populations in experimental plots were monitored using delta traps baited with 0.16% codlemone (8E,10E-dodecadien-1-ol). Whenever a weekly count of codling moth males in the traps reached or exceeded five males per trap, an insecticide was applied within the next 1-2 days.
For each replicate, one tree received a spray with an insecticide tank-mixed with L-aspartate. Concentration of L-aspartate was 211 g/100 liters, which corresponded to 395 g/ha. Next, one tree in each replicate was sprayed with the respective insecticide only. Surf-Ac 820 (2.1 kg/ha, 50 g/100 liters) was used as a surfactant in either spray with L-aspartate-insecticide combination or with the respective insecticide only. In addition, one tree in each replicate was left untreated.
Sprays (at delivery rate=4673 liters/ha) were performed using a custom-made motorized handgun sprayer with nine separate tanks (Friend Manufacturing Corporation, Gasport, N.Y.) capable of sending the spray precisely into canopy of height up to 4 meters. To minimize spray drift, a tarpaulin screen was used.
Each year, 200 apples were sampled from each experimental trees treated with insecticide-L-asparate combination, each control tree (treated with insecticides only), and from each untreated tree. One hundred apples per tree were collected 2 weeks after the first flight of codling moth (May 2010, early June in 2011, and May 2012). Remaining apples (100 per tree) were collected at harvest (August in 2010 and 2011 and July in 2012). […] Briefly, 33-34 apples were collected from each of three zones within the canopy (close to the trunk, from the middle of the distance in between the trunk and the tips of the branches, and from the outside portion of the canopy to within 10-15 cm inside). Each time a vertical area from the bottom to the top of the canopy was randomly sampled in a circuitous design around the tree. The apples were immediately weighed and inspected for damage in the laboratory. Once damage was found, the fruit was carefully fragmented with a paring knife, and internal fruit feeders (in some fruits larvae of oriental fruit moth were found) were collected and examined under a stereomicroscope. Codling moth larvae were discriminated from oriental fruit moth larvae by absence of anal comb (Il'ichev et al. 2006). […] Apple weight was expressed as average±SEM weight. Damage was expressed as average±SEM percentage of sampled fruit that was infected by codling moth larvae.

codling moth neonates [1] = assay: Foliage consumption on foliage treated with LC30 of insecticide alone or with L-aspartate; assay type: in vivo, Cydia pomonella; conditions: LC30 of insecticide alone or with 1 mg/ml L-aspartate, 24 hours
[2] = system: Drosophila N-methyl-D-aspartate (NMDA) receptors; conditions: excitation of receptors; cited from earlier work
codling moth neonates [3] = assay type: in vivo; conditions: addition of 1 mg/ml L-aspartate; LC50 alone divided by LC50 with L-aspartate
Experimental: (§1) Codling moth adults (C. pomonella) were obtained from the U.S. Department of Agriculture Research Service (USDAD ARS) at Yakima, Wash. The moths were kept at 25° C., 70-80% relative humidity, and a photoperiod of 16:8 (L:D) h. Polyethylene foil was provided as an oviposition surface. […] In all experiments, 0.5-1 hour posthatch neonates were used.

codling moth neonates [4] = assay: Feeding stimulation by L-aspartate on treated apple leaf sections; assay type: in vivo, Cydia pomonella
Experimental: as §1
Feeding Stimulation by L-Aspartate. The feeding behavior of test larvae was assessed on apple leaf sections treated with L-aspartate solutions, and by a quantitative analysis of the amounts of leaf tissue ingested. Briefly, L-aspartate was dissolved in 0.02% Triton X-100 in distilled water, and the following concentrations were used for treatment of experimental sections: 0.01, 0.1, and 1 mg/ml. Control leaves were treated with the 0.02% aqueous Triton X-100 only. Circular sections of uniform size (12 mm in diameter) were removed from Honeycrisp (U.S. Pat. No. 7,197) foliage, avoiding the leaf rib area. Test solutions (10 μl) were distributed over the upper surface of the excised sections that subsequently were allowed to air-dry. […] Treated sections were placed in bioassay stations and each section was infested with one neonate larva. The surface area of each leaf disc that was consumed was determined using a stereomicroscope equipped with an ocular square mesh reference scale (No. 12-561-RG2; Fisher, Pittsburgh, Pa.). Thirty-three fragments of leaves, chosen randomly from […] of the leaves, were also measured visually and then dried and weighed to establish a relationship between optical measurement and weight of foliage consumed. Based on this determination, consumed areas of the leaf were converted to an estimated dry weight of leaf tissue.
Thirty to forty neonate larvae were tested individually to each concentration of L-aspartate. The amount of leaf tissue consumed by neonates was estimated 3 and 24 hours after infestation of each bioassay station, and was expressed as average (mean±SEM) leaf consumption.

codling moth neonates [5] = conditions: residues on artificial diet surface; cited from earlier work
[6] = addition of 0.1% Coax; cited from earlier work
Spodoptera frugiperda = conditions: Nu-Lure, Coax or Konsume, concentrations as high as 10%; cited from earlier work
codling moth neonates [7] = conditions: earlier studies, cited from earlier work
codling moth neonates [8] = conditions: cited from earlier work
[9] = system: fourth-instar larvae of Heliothis virescens; conditions: fed artificial diet; cited from earlier work
[10] = system: fourth-instar larvae of Spodoptera littoralis; conditions: fed artificial diet; cited from earlier work
[11] = system: neonates of Choristoneura rosaceana; conditions: 24 hours, concentrations as low as 0.6 ppm (AI); cited from earlier work

N[C@@H](CC(=O)O)C(=O)O [L-aspartate, L-Aspartic acid]
fruit damage by first-generation neonates after addition of L-aspartate to insecticide sprays (codling moth larvae; 2010): < 1% | fruit damage by first-generation neonates after addition of L-aspartate to insecticide sprays (codling moth larvae; 2011): 1.2% | fruit damage by first-generation neonates after addition of L-aspartate to insecticide sprays (codling moth larvae; 2012): 1% | fruit damage reduced by (codling moth larvae; first generation): 5% | fruit damage reduced by (codling moth larvae; second generation): 15% | foliage consumption (codling moth neonates [1]): maintained its feeding stimulatory properties even in the presence of each insecticide | potency relative to glutamate [2]: about five times less potent than glutamate | efficacy increased by a factor (enhancement ratio) (codling moth neonates [3]): approximately 10 | concentration at which food consumption increased (codling moth neonates [4]; 3-hour assays): 1 mg/mL | lowest effective concentration increasing food consumption (codling moth neonates [4]; 24-hour assays): 0.1 mg/mL | increased foliage consumption in comparison with control (codling moth neonates [4]; 3 hours, 1 mg/ml L-aspartate): approximately 60% | increased foliage consumption in comparison with control (codling moth neonates [4]; 24 hours, 0.1 mg/ml L-aspartate): approximately 30% | increased foliage consumption in comparison with control (codling moth neonates [4]; 24 hours, 1 mg/ml L-aspartate): approximately 40%

C/C(=N\C#N)N(C)Cc1ccc(Cl)nc1 [acetamiprid]
LC50 with 95% confidence (codling moth neonates [5]): 1.35 to 2.06 mg (AI)/liter

CC1(C)C(C=C(Cl)Cl)C1C(=O)OC(C#N)c1cccc(Oc2ccccc2)c1 (stereo not shown) [cypermethrin]
toxicity increased (times) [6]: 2.4 times

CC1(C)[C@H](C(=O)O[C@H](C#N)c2cccc(Oc3ccccc3)c2)[C@@H]1C=C(Br)Br [delthamethrin]
toxicity increased (times) [6]: 11.3 times

O=C(NC(=O)c1c(F)cccc1F)Nc1ccc(Cl)cc1 [diβubenzuron]
mortality on adding phagostimulants (Spodoptera frugiperda): unable to significantly increase mortality

N[C@@H](CCC(=O)O)C(=O)[O-].[Na+] [monosodium glutamate]
concentration at which food consumption increased (codling moth neonates [7]; 3-hour assays): 0.03 mg/mL | effective concentration increasing food consumption (codling moth neonates [7]; 24-hour assays): 0.05 mg/mL

CCc1ccc(C(=O)NN(C(=O)c2cc(C)cc(C)c2)C(C)(C)C)cc1 [tebufenoside]
mortality on adding phagostimulants (Spodoptera frugiperda): unable to significantly increase mortality

NC1(C(=O)O)CC(C(=O)O)C1 (stereo not drawn) [trans-ACBD]
reduction of insecticide active ingredient without sacrificing efficacy (codling moth neonates [8]; in vivo): > 50%

CC1(C)C(C=C(Cl)Cl)C1C(=O)OC(C#N)c1ccc(F)c(Oc2ccccc2)c1 (stereo not drawn) [β-cyfluthrin]
LC50 [9]: 3.1 μg/g of diet | LC50 [10]: 0.1 μg/g of diet

spinetoram
mortality [11]: 100%

spinosad
efficacy enhancement (codling moth neonates [8]; addition of trans-ACBD): enhanced almost two times
